The values below come from patent publication US20260306527A1, “PRMT INHIBITOR COMPOUNDS AND THE USES THEREOF” (Purdue Research Foundation, priority 2023, published 2026).

Assay type in all cases: biochemical
For assay [1], the target named is PRMT6 (Homo sapiens, UniProt Q96LA8). Description: radioactive assay (Reaction Biology Corp.), inhibition of PRMT6. The method, then:
Next, the inhibition activity of the library was investigated for five PRMT members from type I PRMTs.
The PRMT 4, 6 and 8 methylation assays were performed by Reaction Biology corp.

Assay [2] has as its target T1, PRMT1 (Homo sapiens, UniProt Q99873).
T1 construct: made in house
Description: SAHH-coupled fluorescence assay, inhibition of PRMT1. The method, boiled down:
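PRMT1 (0.1 μM) was run with 10 μM AdoMet, 5 μM SAHH and 10 μM ThioGlo4 in 2.5 mM HEPES pH 7.0, 25 mM NaCl, 25 μM EDTA, 50 μM TCEP and 0.01% Triton X-100. Fluorescence (ex 400/em 465 nm) was monitored for 15 min. Assays were done in duplicate.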

For assay [3], the system named is PRMT3. As to the kind of experiment: SAHH-coupled fluorescence assay, inhibition of PRMT3. To be noted: read-out: IC50 [µM] | PRMT3. In short, it runs like this: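 Coupled SAHH/ThioGlo4 fluorescence read-out (ex 380 nm, em 505 nm) of PRMT3 (0.25 μM) methylation with 30 μM AdoMet and 5 μM SAHH. Buffer was 20 mM Tris pH 7.5 with 0.01% Triton X-100. Run in duplicate.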

Chain of PRMT6 (Q96LA8 whole entry, species assumed): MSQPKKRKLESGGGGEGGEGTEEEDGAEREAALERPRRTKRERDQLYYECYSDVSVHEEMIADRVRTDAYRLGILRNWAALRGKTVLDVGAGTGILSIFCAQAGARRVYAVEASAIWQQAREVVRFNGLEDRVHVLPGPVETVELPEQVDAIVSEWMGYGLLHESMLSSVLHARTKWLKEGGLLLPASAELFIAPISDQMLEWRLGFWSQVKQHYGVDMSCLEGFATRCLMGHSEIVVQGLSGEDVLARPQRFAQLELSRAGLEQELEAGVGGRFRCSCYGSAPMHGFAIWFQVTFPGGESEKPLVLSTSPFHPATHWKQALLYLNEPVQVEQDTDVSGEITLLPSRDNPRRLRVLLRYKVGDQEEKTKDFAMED
T1 sequence (Q99873 whole entry, species assumed): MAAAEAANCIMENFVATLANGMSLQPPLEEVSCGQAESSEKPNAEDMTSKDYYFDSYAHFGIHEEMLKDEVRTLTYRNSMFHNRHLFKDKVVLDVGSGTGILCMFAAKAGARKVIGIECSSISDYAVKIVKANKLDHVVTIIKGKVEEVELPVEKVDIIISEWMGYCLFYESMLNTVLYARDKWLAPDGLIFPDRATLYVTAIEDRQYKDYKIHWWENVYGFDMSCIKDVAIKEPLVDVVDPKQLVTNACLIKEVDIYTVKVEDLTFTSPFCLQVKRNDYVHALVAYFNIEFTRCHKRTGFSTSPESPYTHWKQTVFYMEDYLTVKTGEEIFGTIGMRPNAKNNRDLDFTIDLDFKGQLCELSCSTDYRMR

On to `Nc1ncnc2c1ncn2[C@@H]1O[C@H](CSCCNC(=O)NCc2ccccc2)[C@@H](O)[C@H]1O` [Compound 7a, 1-(2-((((2S,3S,4R,5R)-5-(6-amino-9H-purin-9-yl)-3,4-dihydroxytetrahydrofuran-2-yl)methyl)thio)ethyl)-3-benzylurea], for which the inhibition at 10 µM in assay [1] worked out at 89%; in assay [2], 30%. The half-maximal inhibitory concentration (IC50) in assay [3] was determined as 0.52 ± 0.07 µM.

For orientation: inhibition means the relative decrease from the control value, in per cent. A word on the IC50: it is the concentration that inhibits the measured activity by half.
